What all share (format): cell-based, human
The subject of assay [1] is CD44^high/CD24^low CSC-like subpopulation of PMA-stimulated MCF-7 cells (MCF-IM model). Description: FACS analysis of CD44high/CD24low CSC-like subpopulation in MCF-IM model. Conditions: for CD44 high CD24 low-CSC-like subpopulation (CSC formation) by FACS: NCD38 5 μM for 17 hr prior to PMA stimulation for 60 hours. How it is done:
(§1) Cells from each well/flask were harvested by means of trypsin treatment followed by two washes with PBS. Washed cells then re-suspended in an antibody cocktail consisting anti-CD44-APC, anti-CD24-PE antibodies (details in Table 5) and Hoechst 33258 dye (final dilution of 1:1000) (Invitrogen, Carlsbad, Calif.) in 1% FCS-PBS solution. Cells re-suspended in antibody cocktail were incubated for 20 minutes at 4° C. Cells were next washed twice with PBS and re-suspended in 1% FCS-PBS solution (volume based on cell number) and kept on ice until analyzed by FACS. Forward scatter (FSC) and side scatter parameters were selected with FITC fluorochrome excited by 488 nm argonion laser, PE fluorochrome excited by 488 nm and Hoechst fluorochrome excited by 350 nm helium-cadmium UV laser.
(§2) Flow Cytometry data was produced using either BD FACS LSR Flow Cytometer (Becton Dickinson Biosciences) or BD FACS Aria™ II Flow Cytometer (Becton Dickinson Biosciences) and analyzed using the data acquisition software CellQuest Pro (Becton Dickinson Biosciences) and FlowJo (Tree Star Inc., Ashland, Oreg.) software at the MCRF facility, JCSMR, ANU, Canberra, Australia. Single colour controls were used to set compensation parameters. Isotype controls were used for all corresponding primary antibodies in each experiment.
The FACS gating strategy used in this thesis is adopted and modified from the pioneer breast cancer stem cell publications (Al-Hajj et al., 2003) which sorted cells based on the CD44^high and CD24^low expression. […] To confirm that anti-CD44-APC and anti-CD24-PE antibodies were specific, isotype control antibodies were used. The isotype (negative controls) used for anti-CD24-PE was PE Mouse-Anti-human IgG2aK and for anti-CD44-APC was APC-Mouse-Anti-human IgG2bK. First, all the cells were stained with Hoechst 33258 to monitor cell viability. In addition cells were stained with varying concentrations of either APC or PE isotypes controls.
(§3) The adherent human mammary adenocarcinoma MCF-7 and MDA-MB-231 cells were cultured in low glucose DMEM (Gibco) and both supplemented with 10% FCS, 2 mM L-glutamine and 0.1% PSN antibiotics. Cells were stimulated with 0.65 ng/ml of phorbol 12-myristate 13-acetate (PMA) (Sigma-Aldrich) or 20 ng/ml of TGF-β (R&D systems) for the times indicated. For Bisindolylmaleimide-I (Calbiochem) or PKC-θ peptide inhibitor (Calbiochem) studies, cells were pre-treated with 1 μM or 30 μM of inhibitor respectively for 1 h prior to stimulation in MCF-7 cells. In case of MDA-MB-231, cells were treated with 4 μM or 30 μM Bisindolylmaleimide-I or PKC-θ peptide inhibitor respectively.
(§4) To separate CSC from non-CSC (NCSC), florescence activated cell sorting (FACS) was performed on single-cell suspensions that were stained with anti-CD44-APC (559942, BD Biosciences) and anti-CD24-PE antibodies (555428, BD Biosciences) along with Hoechst 33258 to monitor cell viability. As used throughout this work, CSC are defined by minority CD44^high/CD24^low, whereas NCSC are defined by rest of the cell populations.
The adherent human mammary adenocarcinoma cell lines MCF-7 were cultured in low glucose DMEM (Gibco) and supplemented with 10% FCS, 2 mM L-glutamine, and 0.1% PSN antibiotics. Cells were stimulated with 0.65 ng/ml of phorbol 12-myristate 13-acetate (PMA) (Sigma-Aldrich) for 60 hours. FACS was performed on single-cell suspensions stained with anti-CD44-APC (559942, BD Biosciences) and anti-CD24-PE antibodies (555428, BD Biosciences), along with Hoechst 33258 (561908, BD Biosciences) to monitor cell viability as previously detailed (Zafar et al., Chromatinized PKC-theta directly regulates inducible genes in epithelial to mesenchymal transition and breast cancer stem cells. Molecular and Cellular Biology, 2014, 34:16 2961-2980). […]
On the technique in general: In flow cytometry, cells or beads pass a laser one at a time.

In assay [2] the test system is MCF-7 cells (mammospheres). Description: Mammosphere assay in MCF-IM model. Conditions: NCD38 5 μM for 17 hr prior to PMA for 6 days, mammospheres larger than 60 μm counted. Here is the method: The following mammosphere culture media components were purchased from StemCell Technologies Inc., BC, Canada: Mammocult Basal medium (Human) (catalogue number-05621), Mammocult Proliferation Supplements (Human) (catalogue number-05622), heparin (catalogue number-07904) and hydrocortisone (catalogue number-[…]). Hydrocortisone powder was freshly dissolved into mammocult basal medium to get 10^−4M solution on the day of experiment. 50 mL of
Mammocult complete media was then prepared by addition of 45 mL Mammocult basal medium, 5 mL mammocult proliferation supplements, 100 μL of the 0.2% heparin stock, 500 μL of 10^−4M stock of hydrocortisone and 50 μL of the PNS. Mammocult complete media was either used on same day or stored for not more than 7 days at 4° C.
MCF-7 cells were grown in a 175 cm^2 cell culture flask and harvested using a cell scraper (Zellschaber, Switzerland) or FACS sorted as specified below. Importantly trypsin treatment was never used for harvesting cells as it interferes with the mammosphere assay. Harvested cells were then re-suspended in 1 mL mammocult complete media and centrifuged at 500×g for 3 minutes at 20° C. The cell pellet was then re-suspended in 1 mL mammocult complete media before counting the cells on the Vi-CELL counter. Cell dilutions were then prepared to stain 40,000 cells/2 mL and 2 mL of cells were seeded in the 6 well-ultra low adherent, flat bottom plates (Costar, Corning Inc, Corning, N.Y., USA). Cells were either stimulated or not treated according to the experimental protocol and incubated at 37° C., under 5% CO2 for 7 days in a Hepa-Filtered Infrared (IR) Incubator (Forma Scientific Inc., Materietta, Ohio). Mammospheres larger than 60 μm were counted per well on day 7 and pictures were taken with an Olympus microscope. All the mammosphere assays were performed in duplicate wells and the entire procedure was repeated at least twice.
Mammosphere culture media components were purchased from StemCell Technologies and mammosphere assays were performed as recommended by the manufacturer's guidelines. Briefly, 40,000 cells/2 ml cell dilutions were then prepared and 2 ml of cells were seeded in the 6 well-ultralow adherent, flat bottom plates (Costar). Mammospheres larger than 60 μm were counted per well on day 7 and pictures were taken.

Assay [3] deals with MDA-MB 231 cells. The experiment in a line: FACS analysis of CD44high/CD24low CSC-like subpopulation in Basal/metastatic model. Conditions: NCD38 5 μM. How it is done:
as §1, §2, §3, §4

In assay [4] the test system is MDA-MB 231 cells. Description: Phase contrast microscopy of EMT/MET in Basal/metastatic model. To be noted: NCD38 5 μM. How it is done: (§5) Phase contrast microscopy was utilized for EMT and wound healing assays under 10× or 20× magnification of Olympus Fluorescence 1X71 microscope. Images were captured and analyzed as described above except that wound healing assay pictures were also analyzed by Image J software (Free software in Public domain developed by NIH).
as §3
(§6) phase contrast microscopy was performed where cells were viewed at ×4 magnification (wound healing assay) or ×10 magnification (EMT) using an Olympus fluorescence IX71 microscope (Olympus) and images were captured using DPController software (2002 Olympus Optical Co. LTD) and analyzed using Photoshop CS3 (Adobe Systems Inc.). Scans were taken with a 10 μm scale bar.

A further assay relates to MCF-7 cells. Description: EMT assay by phase contrast microscopy in MCF-IM model. To be noted: MCF-7 cells; PMA 20 ng/mL for 60 hr, compared with TNF-α, EGF, IL-6, TGF-β. Here is the method:
EMT assays were performed in 24-well plates (Costar, Corning Inc., Corning, N.Y., USA). For this assay, usually MCF-7 cells were seeded at 4×10^4/well/500 μL media one day before the experiment unless otherwise specified. Cells were stimulated with various EMT stimuli prepared in warm media the following day and monitored for EMT changes under the microscope specified below. The percentage of EMT was generally calculated based on phenotype counting 100 cells per field under the microscope. All the potential EMT stimuli used herein are described in Table 6 and they were prepared and stored as per supplier specification.
as §5
The adherent human mammary adenocarcinoma MCF-7 and MDA-MB-231 cells were cultured in low glucose DMEM (Gibco) and both supplemented with 10% FCS, 2 mM L-glutamine and 0.1% PSN antibiotics. […] For Bisindolylmaleimide-I (Calbiochem) or PKC-θ peptide inhibitor (Calbiochem) studies, cells were pre-treated with 1 μM or 30 μM of inhibitor respectively for 1 h prior to stimulation in MCF-7 cells. In case of MDA-MB-231, cells were treated with 4 μM or 30 μM Bisindolylmaleimide-I or PKC-θ peptide inhibitor respectively.
as §6

As a reminder, the inhibition is the drop in the measured response relative to a control, in per cent. The low end stands for little suppression, the high end for strong suppression.

“Also recorded” adds a separate entry of the source.

Turning to `O=C(N[C@@H](CCNC1CC1c1ccccc1)C(=O)NCc1cccc(Cl)c1)c1ccc(-c2ccccc2)cc1` (some centres unmarked) [NCD-38], the inhibition at 2.5 µM in assay [1] (Homo sapiens, MCF7, MCF-IM model, NCD-38 alone at 2.5 μM) is about 50%. Moreover, the inhibition at 5 µM in assay [1] (Homo sapiens, MCF7, MCF-IM model, NCD-38 alone at 5 μM) was about 60%. Further, the “CD44 high CD24 low-CSC-like subpopulation (CSC formation) by FACS” value is given as “inhibition CSC formation” in assay [1] (MCF-IM model); “inhibits CD44 high CD24 low-CSC-like subpopulation” in assay [1] (MCF-IM model, listed as NCD38); “decrease of CSC formation” in the assay on MDA-MB 231 cells [3]; “inhibits CD44 high CD24 low-CSC-like subpopulation” in the assay on MDA-MB 231 cells [3] (listed as NCD38). For the same compound, the mammosphere formation entry is “inhibition CSC formation” in assay [2] and “reduce mammosphere formation” in assay [2] (listed as NCD38). Further, the “EMT / conversion of mesenchymal cells to epithelial cells (MET), phase contrast morphology” value is given as “conversion of mesenchymal cells in to epithelial cells” in the assay with MDA-MB 231 cells [4] and “inhibit EMT” in the assay with MDA-MB 231 cells [4] (listed as NCD38).

`CCCCCCCCCCCCCC(=O)O[C@@H]1[C@@H](C)[C@@]2(O)[C@@H](C=C(CO)C[C@]3(O)C(=O)C(C)=C[C@@H]23)[C@@H]2C(C)(C)[C@]12OC(C)=O` [PMA, Phorbol 12-Myristate 13-Acetate]: the “generation of CD44high/CD24low CSC-like cells by FACS” value in assay [1] (MCF-7 cells stimulated with PMA 0.65 ng/mL for 60 hr) is “generation of CD44^high/CD24^low-CSC like cells”. Further, the “EMT (percentage of the cells undergoing EMT, morphological changes)” value with MCF-7 cells is listed as “results in maximal EMT; also recorded: caused highest EMT changes”.

In assay [1] (Homo sapiens, MCF7, MCF-IM model, C27 alone at 100 nM), `CC(C)[C@@](C)(O)[C@@H]1CN(c2nc(-c3n[nH]c4ncccc34)c(F)cc2Cl)CCN1` [Compound C27] had an inhibition at 0.1 µM of about 30%. The compound also came in with an inhibition at 0.5 µM in assay [1] (Homo sapiens, MCF7, MCF-IM model, C27 alone at 500 nM) of about 90%.
